Key:
Nucleic Acid [1] = experiment: Compound was evaluated for binding affinity to alternating poly(dA)-poly(dT) polymer using ethidium displacement assay; type: nucleic-acid assay
Nucleic Acid [2] = experiment: Compound was evaluated for its ability of alkylation of DNA; type: nucleic-acid assay; settings: Bos taurus
Nucleic Acid [3] = experiment: Compound was evaluated for binding affinity to calf thymus DNA using ethidium displacement assay; type: nucleic-acid assay; settings: Bos taurus
KB = experiment: Compound was evaluated for cytotoxicity measured as TD50; type: functional; settings: Homo sapiens, read-out: TD50 (the source's name)
Nucleic Acid [4] = experiment: Compound was evaluated for its binding affinity to homo poly(dA-dT) polymer using ethidium displacement assay; type: nucleic-acid assay
Nucleic Acid [5] = experiment: Compound was evaluated for binding affinity to poly(dG-dC) polymer using ethidium displacement assay; type: nucleic-acid assay
Nucleic Acid [6] = experiment: Binding affinity to alternating poly(dA)-poly(dT) polymer using ethidium displacement assay; type: nucleic-acid assay; settings: Bos taurus
Nucleic Acid [7] = experiment: Compound was evaluated for binding affinity to homo poly(dA-dT) polymer using ethidium displacement assay; type: nucleic-acid assay

| SMILES | C50 (Nucleic Acid [1]) | Alkylation (Nucleic Acid [2]) | C50 (Nucleic Acid [3]) | Kb (Nucleic Acid [3]) | CC50 (KB) | C50 (Nucleic Acid [4]) | C50 (Nucleic Acid [5]) | Kb (Nucleic Acid [5]) | Kb (Nucleic Acid [6]) | Kb (Nucleic Acid [7]) |
| --- | --- | --- | --- | --- | --- | --- | --- | --- | --- | --- |
| CN(C)CCCNC(=O)c1cc(NC(=O)c2cc(NC(=O)c3ccc(N(CCCl)CCCl)cc3)cn2CCCCCCCCCn2cc(NC(=O)c3ccc(N(CCCl)CCCl)cc3)cc2C(=O)Nc2cc(C(=O)NCCCN(C)C)n(C)c2)cn1C | 1.31 µM | 6.7% | 1.74 µM | 3.2e+06 M⁻¹ | > 79.2 µM | 1.3 µM | 1.97 µM | 1.04e+07 M⁻¹ | – | – |
| CN(C)CCCNC(=O)c1cc(NC(=O)c2cc(NC(=O)c3ccc(N(CCCl)CCCl)cc3)cn2CCCCCCCCCCCn2cc(NC(=O)c3ccc(N(CCCl)CCCl)cc3)cc2C(=O)Nc2cc(C(=O)NCCCN(C)C)n(C)c2)cn1C | 1.2 µM | 12% | 1.63 µM | 3.42e+06 M⁻¹ | 35.8 µM | 1.1 µM | 2.46 µM | 8.25e+06 M⁻¹ | – | – |
| CN(C)CCCNC(=O)c1cc(NC(=O)c2cc(NC(=O)c3ccc(N(CCCl)CCCl)cc3)cn2CCCCCCCCn2cc(NC(=O)c3ccc(N(CCCl)CCCl)cc3)cc2C(=O)Nc2cc(C(=O)NCCCN(C)C)n(C)c2)cn1C | 0.535 µM | 7.1% | 1.02 µM | 5.6e+06 M⁻¹ | > 79.2 µM | 0.802 µM | 1.64 µM | 1.25e+07 M⁻¹ | – | – |
| CN(C)CCCNC(=O)c1cc(NC(=O)c2cc(NC(=O)c3ccc(N(CCCl)CCCl)cc3)cn2C)cn1C | 0.199 µM | 11% | 5.1 µM | 1.07e+06 M⁻¹ | 5 µM | 2.85 µM | 11 µM | 1.81e+06 M⁻¹ | 6.06e+06 M⁻¹ | 3.41e+06 M⁻¹ |
| CN(C)CCCNC(=O)c1cc(NC(=O)c2cc(NC(=O)c3ccc(N(CCCl)CCCl)cc3)cn2CCCCCCCCCCCCn2cc(NC(=O)c3ccc(N(CCCl)CCCl)cc3)cc2C(=O)Nc2cc(C(=O)NCCCN(C)C)n(C)c2)cn1C | 1.31 µM | – | 3.17 µM | 1.73e+06 M⁻¹ | 36.3 µM | 1.06 µM | 2.11 µM | 9.66e+06 M⁻¹ | – | – |
| CN(C)CCCNC(=O)c1cc(NC(=O)c2cc(NC(=O)c3ccc(N(CCCl)CCCl)cc3)cn2CCCCCCCCCCn2cc(NC(=O)c3ccc(N(CCCl)CCCl)cc3)cc2C(=O)Nc2cc(C(=O)NCCCN(C)C)n(C)c2)cn1C | 1.1 µM | 7.3% | 2.02 µM | 2.74e+06 M⁻¹ | 44.2 µM | 1.78 µM | 1.96 µM | 1.04e+07 M⁻¹ | – | – |

Reference: ChEMBL document CHEMBL1128615, “Design, synthesis and evaluation of novel bismustard cross-linked lexitropsins” (1995)
